In patent publication US7109192B2, “Substituted imidazo-pyridinones and imidazo-pyridazinones, the preparation thereof and their use as pharmaceutical compositions” (Boehringer Ingelheim Pharma GmbH & Co KG, priority 2002, dated 2006):
Where a name gives a salt, the structure may show the parent alone.

Legend:
DPP-IV = target: T1, DPP-IV (Homo sapiens, UniProt P27487); test: DPP-IV inhibition assay with Caco-2 cell extract, AFC substrate, fluorescence; type: biochemical; details: extract of human colon carcinoma cell line Caco-2 as DPP IV source; 100 μM AFC substrate; 60 minutes, ambient temperature
T1 construct: an extract of human colon carcinoma cell line Caco-2 is used as the DPP IV source; endogenous in cells; host or cells: Caco-2 (human colon carcinoma), differentiated to induce DPP-IV expression; Nonidet-P40 solubilised extract
T1 sequence (P27487 whole entry): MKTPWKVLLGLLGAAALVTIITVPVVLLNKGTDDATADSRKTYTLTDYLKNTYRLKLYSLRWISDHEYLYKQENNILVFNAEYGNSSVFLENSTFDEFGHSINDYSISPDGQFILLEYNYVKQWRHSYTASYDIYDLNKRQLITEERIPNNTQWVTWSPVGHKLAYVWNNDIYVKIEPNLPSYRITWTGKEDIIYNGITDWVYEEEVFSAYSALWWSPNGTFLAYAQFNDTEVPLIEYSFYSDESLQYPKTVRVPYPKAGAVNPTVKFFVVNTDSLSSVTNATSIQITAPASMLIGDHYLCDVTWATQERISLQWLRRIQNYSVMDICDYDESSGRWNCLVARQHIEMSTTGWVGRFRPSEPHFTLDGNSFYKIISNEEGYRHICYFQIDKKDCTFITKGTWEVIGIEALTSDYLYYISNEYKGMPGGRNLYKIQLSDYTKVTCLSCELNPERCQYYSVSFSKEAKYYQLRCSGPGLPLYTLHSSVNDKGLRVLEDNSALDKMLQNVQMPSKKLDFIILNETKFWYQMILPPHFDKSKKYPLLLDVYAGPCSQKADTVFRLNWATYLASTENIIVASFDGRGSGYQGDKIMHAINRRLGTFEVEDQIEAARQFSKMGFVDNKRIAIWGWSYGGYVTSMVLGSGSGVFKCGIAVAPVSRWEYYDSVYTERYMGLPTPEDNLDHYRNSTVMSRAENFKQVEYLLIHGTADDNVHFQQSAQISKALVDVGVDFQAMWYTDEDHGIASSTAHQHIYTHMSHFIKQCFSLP
Experimental: The cell extract was obtained from cells solubilised in a buffer (10 mM Tris HCl, 0.15 M NaCl, 0.04 t.i.u. aprotinin, 0.5% Nonidet-P40, pH 8.0) by centrifuging at 35,000 g for 30 minutes at 4° C. (to remove cell debris).
The DPP-IV assay was carried out as follows:
50 μl substrate solution (AFC; AFC is amido-4-trifluoromethylcoumarin), final concentration 100 μM, were placed in black microtitre plates. 20 μl of assay buffer (final concentrations 50 mM Tris HCl pH 7.8, 50 mM NaCl, 1% DMSO) was pipetted in. The reaction was started by adding 30 μl of solubilised Caco-2 protein (final concentration 0.14 μg of protein per well). The test substances to be investigated were typically added prediluted in 20 μl, and the volume of assay buffer was then reduced accordingly. The reaction was carried out at ambient temperature, incubating for 60 minutes. […] Blank readings (corresponding to 0% activity) were obtained in mixtures without any Caco-2 protein (volume replaced by assay buffer), control values (corresponding to 100% activity) were obtained in mixtures with no substance added.

rats = test: Tolerability in rats after oral administration; type: in vivo, rat; details: 10 mg/kg

Row | SMILES | IC50 (DPP-IV) [nM] | changes in the animals' behaviour (rats)
1 | CC#CCn1c(N2CCC[C@@H](N)C2)nc2cnn(Cc3ccc4nonc4c3)c(=O)c21 [Example 202, 2-((R)-3-amino-piperidin-1-yl)-3-(but-2-ynyl)-5-(benzo[1,2,5]oxadiazol-5-ylmethyl)-3,5-dihydro-imidazo[4,5-d]pyridazin-4-one] | 9.8 | 
2 | CC#CCn1c(N2CCC[C@@H](N)C2)nc2cnn(Cc3nc4cc(C(F)(F)F)ccc4s3)c(=O)c21 [Example 195, 2-((R)-3-amino-piperidin-1-yl)-3-(but-2-ynyl)-5-(5-trifluoromethylbenzothiazol-2-ylmethyl)-3,5-dihydro-imidazo[4,5-d]pyridazin-4-one hydrochloride] | 17 | 
3 | CC#CCn1c(N2CCC[C@@H](N)C2)nc2cnn(Cc3ccc(F)c4ccccc34)c(=O)c21 [Example 191, 2-((R)-3-amino-piperidin-1-yl)-3-(but-2-ynyl)-5-(4-fluoronaphthalen-1-ylmethyl)-3,5-dihydro-imidazo[4,5-d]pyridazin-4-one hydrochloride] | 14 | 
4 | CC#CCn1c(N2CCC[C@@H](N)C2)nc2cnn(Cc3cn(C)c(=O)c4ccccc34)c(=O)c21 [Example 217, 2-((R)-3-amino-piperidin-1-yl)-3-(but-2-ynyl)-5-(2-methyl-2H-isoquinolin-1-on-4-ylmethyl)-3,5-dihydro-imidazo[4,5-d]pyridazin-4-one] | 10 | 
5 | Cc1cc2ccccc2c(Cn2ncc3nc(N4CCC[C@@H](N)C4)n(Cc4ccccc4Cl)c3c2=O)n1 [Example 205, 2-((R)-3-amino-piperidin-1-yl)-3-(2-chlorobenzyl)-5-(3-methyl-isoquinolin-1-ylmethyl)-3,5-dihydro-imidazo[4,5-d]pyridazin-4-one] | 5.4 | 
6 | CC#CCn1c(N2CCCC(N)C2)nc2cnn(Cc3cccc4ccccc34)c(=O)c21 (stereo not shown) [Example 2, 2-(3-amino-piperidin-1-yl)-3-(but-2-ynyl)-5-(naphthalen-1-ylmethyl)-3,5-dihydro-imidazo[4,5-d]pyridazin-4-one] |  | no changes in the animals' behaviour could be detected
7 | CC#CCn1c(N2CCCC(N)C2)nc2cnn(Cc3ccc4nccnc4c3)c(=O)c21 (stereo not shown) [Example 182, 2-(3-amino-piperidin-1-yl)-3-(but-2-ynyl)-5-(quinoxalin-6-ylmethyl)-3,5-dihydro-imidazo[4,5-d]pyridazin-4-one] | 1.2 | 
